In PubChem BioAssay AID1845217 (Molecular Pharmacology Branch, DTP, NCI, 2023):

System: VA-ES-BJ tumor spheroid viability
Test: Anticancer human tumor VA-ES-BJ cell line growth inhibition;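 also: spheroids exposed to compounds for seven days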;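 as to viability, T/C: percent of DMSO vehicle control viability so 100% = untreated growth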
Conditions: spheroids with HUVEC and MSC; for IC50: curve of first compound; for viability, T/C: stronger effect = lower value
Method in brief: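 Complex tumor spheroids combined malignant cells with endothelial cells and mesenchymal stem cells. DNA-damaging drugs and DNA repair inhibitors were tested alone and in combination, at half-log dilutions down from clinical Cmax (top 10 microM if Cmax unknown), 0.25% DMSO final.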

[1] = second compound 0.003 µM, first compound 0.0316 µM
[2] = second compound 0.003 µM, first compound 0.1 µM
[3] = second compound 0.003 µM, first compound 0.316 µM
[4] = second compound 0.003 µM, first compound 1 µM
[5] = second compound 0.003 µM, first compound 3.16 µM
[6] = second compound 0.003 µM, first compound 10 µM
[7] = second compound 0.00949 µM, first compound 0.0316 µM
[8] = second compound 0.00949 µM, first compound 0.1 µM
[9] = second compound 0.00949 µM, first compound 0.316 µM
[10] = second compound 0.00949 µM, first compound 1 µM
[11] = second compound 0.00949 µM, first compound 3.16 µM
[12] = second compound 0.00949 µM, first compound 10 µM
[13] = second compound 0.03 µM, first compound 0.0316 µM
[14] = second compound 0.03 µM, first compound 0.1 µM
[15] = second compound 0.03 µM, first compound 0.316 µM
[16] = second compound 0.03 µM, first compound 1 µM
[17] = second compound 0.03 µM, first compound 3.16 µM
[18] = second compound 0.03 µM, first compound 10 µM
[19] = second compound 0.0949 µM, first compound 0.0316 µM
[20] = second compound 0.0949 µM, first compound 0.1 µM
[21] = second compound 0.0949 µM, first compound 0.316 µM
[22] = second compound 0.0949 µM, first compound 1 µM
[23] = second compound 0.0949 µM, first compound 3.16 µM
[24] = second compound 0.0949 µM, first compound 10 µM
[25] = second compound 0.3 µM, first compound 0.0316 µM
[26] = second compound 0.3 µM, first compound 0.1 µM
[27] = second compound 0.3 µM, first compound 0.316 µM
[28] = second compound 0.3 µM, first compound 1 µM
[29] = second compound 0.3 µM, first compound 3.16 µM
[30] = second compound 0.3 µM, first compound 10 µM

**Q.** With `O=C(c1cc(Cc2n[nH]c(=O)c3ccccc23)ccc1F)N1CCN(C(=O)C2CC2)CC1` + COc1cc2c(cc1O)CCNC21CSC2c3c(OC(C)=O)c(C)c4c(c3C(COC1=O)N1C(O)C3Cc5cc(C)c(OC)c(O)c5C(C21)N3C)OCO4 as the compound, how does the IC50 (second compound 30 pM) read?
**A.** 19000 nM

**Q.** And the IC50 (second compound 94.9 pM)?
**A.** 11100 nM

**Q.** What about the IC50 (second compound 0.0003 µM) of the same compound?
**A.** < 94.9 nM

**Q.** What about the IC50 (second compound 0.000949 µM) of the same compound?
**A.** < 94.9 nM

**Q.** And the IC50 (second compound 0.003 µM)?
**A.** < 94.9 nM

**Q.** And the viability, T/C (second compound 30 pM, first compound 0.0949 µM)?
**A.** 86%

**Q.** What about the viability, T/C (second compound 30 pM, first compound 0.3 µM) of the same compound?
**A.** 95.8%

**Q.** And the viability, T/C (second compound 30 pM, first compound 0.949 µM)?
**A.** 99%

**Q.** What about the viability, T/C (second compound 30 pM, first compound 3 µM) of the same compound?
**A.** 91%

**Q.** And the viability, T/C (second compound 30 pM, first compound 9.49 µM)?
**A.** 65%

**Q.** What about the viability, T/C (second compound 30 pM, first compound 30 µM) of the same compound?
**A.** 40.1%

**Q.** And the viability, T/C (second compound 94.9 pM, first compound 0.0949 µM)?
**A.** 90.5%

**Q.** And the viability, T/C (second compound 94.9 pM, first compound 0.3 µM)?
**A.** 84.7%

**Q.** And the viability, T/C (second compound 94.9 pM, first compound 0.949 µM)?
**A.** 86.9%

**Q.** What about the viability, T/C (second compound 94.9 pM, first compound 3 µM) of the same compound?
**A.** 76.9%

**Q.** What about the viability, T/C (second compound 94.9 pM, first compound 9.49 µM) of the same compound?
**A.** 54.1%

**Q.** And the viability, T/C (second compound 94.9 pM, first compound 30 µM)?
**A.** 24.4%

**Q.** What about the viability, T/C (second compound 0.0003 µM, first compound 0.0949 µM) of the same compound?
**A.** 44.3%

**Q.** What about the viability, T/C (second compound 0.0003 µM, first compound 0.3 µM) of the same compound?
**A.** 40.7%

**Q.** What about the viability, T/C (second compound 0.0003 µM, first compound 0.949 µM) of the same compound?
**A.** 43.6%

**Q.** And the viability, T/C (second compound 0.0003 µM, first compound 3 µM)?
**A.** 33.2%

**Q.** What about the viability, T/C (second compound 0.0003 µM, first compound 9.49 µM) of the same compound?
**A.** 16.1%

**Q.** What about the viability, T/C (second compound 0.0003 µM, first compound 30 µM) of the same compound?
**A.** 5.05%

**Q.** And the viability, T/C (second compound 0.000949 µM, first compound 0.0949 µM)?
**A.** 3.35%

**Q.** What about the viability, T/C (second compound 0.000949 µM, first compound 0.3 µM) of the same compound?
**A.** 2.46%

**Q.** What about the viability, T/C (second compound 0.000949 µM, first compound 0.949 µM) of the same compound?
**A.** 3.04%

**Q.** And the viability, T/C (second compound 0.000949 µM, first compound 3 µM)?
**A.** 2.86%

**Q.** And the viability, T/C (second compound 0.000949 µM, first compound 9.49 µM)?
**A.** 1.46%

**Q.** What about the viability, T/C (second compound 0.000949 µM, first compound 30 µM) of the same compound?
**A.** 0.33%

**Q.** And the viability, T/C (second compound 0.003 µM, first compound 0.0949 µM)?
**A.** 1.2%

**Q.** What about the viability, T/C (second compound 0.003 µM, first compound 0.3 µM) of the same compound?
**A.** 1.64%

**Q.** And the viability, T/C (second compound 0.003 µM, first compound 0.949 µM)?
**A.** 1.77%

**Q.** And the viability, T/C (second compound 0.003 µM, first compound 3 µM)?
**A.** 2.03%

**Q.** What about the viability, T/C (second compound 0.003 µM, first compound 9.49 µM) of the same compound?
**A.** 3.45%

**Q.** What about the viability, T/C (second compound 0.003 µM, first compound 30 µM) of the same compound?
**A.** 4.01%

**Q.** Which IC50 (second compound 0.003 µM) does the source give for `COc1cc(C)[nH]c(=O)c1CN1CCc2c(Cl)cc(C(OC)C3COC3)c(Cl)c2C1=O` (stereo not given) + CC[C@@]1(O)C(=O)OCc2c1cc1n(c2=O)Cc2cc3c(CN(C)C)c(O)ccc3nc2-1 here?
**A.** > 10000 nM

**Q.** What about the IC50 (second compound 0.00949 µM) of the same compound?
**A.** 5100 nM

**Q.** What about the IC50 (second compound 0.03 µM) of the same compound?
**A.** < 31.6 nM

**Q.** What about the IC50 (second compound 0.0949 µM) of the same compound?
**A.** < 31.6 nM

**Q.** What about the IC50 (second compound 0.3 µM) of the same compound?
**A.** < 31.6 nM

**Q.** What about the viability, T/C [1] of the same compound?
**A.** 99.6%

**Q.** And the viability, T/C [2]?
**A.** 88.8%

**Q.** And the viability, T/C [3]?
**A.** 70.9%

**Q.** What about the viability, T/C [4] of the same compound?
**A.** 64.2%

**Q.** And the viability, T/C [5]?
**A.** 54.9%

**Q.** And the viability, T/C [6]?
**A.** 52.5%

**Q.** And the viability, T/C [7]?
**A.** 93.2%

**Q.** And the viability, T/C [8]?
**A.** 88.8%

**Q.** And the viability, T/C [9]?
**A.** 74.5%

**Q.** What about the viability, T/C [10] of the same compound?
**A.** 65.5%

**Q.** What about the viability, T/C [11] of the same compound?
**A.** 53%

**Q.** What about the viability, T/C [12] of the same compound?
**A.** 45.4%

**Q.** And the viability, T/C [13]?
**A.** 50.1%

**Q.** And the viability, T/C [14]?
**A.** 47.5%

**Q.** What about the viability, T/C [15] of the same compound?
**A.** 47.3%

**Q.** What about the viability, T/C [16] of the same compound?
**A.** 46.9%

**Q.** What about the viability, T/C [17] of the same compound?
**A.** 42.3%

**Q.** What about the viability, T/C [18] of the same compound?
**A.** 38.4%

**Q.** What about the viability, T/C [19] of the same compound?
**A.** 8.85%

**Q.** And the viability, T/C [20]?
**A.** 9.47%

**Q.** And the viability, T/C [21]?
**A.** 8.43%

**Q.** And the viability, T/C [22]?
**A.** 8.57%

**Q.** And the viability, T/C [23]?
**A.** 8.44%

**Q.** And the viability, T/C [24]?
**A.** 9.48%

**Q.** And the viability, T/C [25]?
**A.** 6.48%

**Q.** What about the viability, T/C [26] of the same compound?
**A.** 6.48%

**Q.** And the viability, T/C [27]?
**A.** 6.57%

**Q.** And the viability, T/C [28]?
**A.** 6.59%

**Q.** And the viability, T/C [29]?
**A.** 5.96%

**Q.** And the viability, T/C [30]?
**A.** 6.06%

**Q.** Which results are given for `CC1COCCN1c1cc(-c2ccnn2C)c2ccnc(-c3ccn[nH]3)c2n1` (stereo not given) + CC[C@@]1(O)C(=O)OCc2c1cc1n(c2=O)Cc2cc3c(CN(C)C)c(O)ccc3nc2-1?
**A.** IC50 (second compound 0.003 µM): 56.3 nM; IC50 (second compound 0.00949 µM): < 31.6 nM; IC50 (second compound 0.03 µM): < 31.6 nM; IC50 (second compound 0.0949 µM): < 31.6 nM; IC50 (second compound 0.3 µM): < 31.6 nM; viability, T/C [1]: 63.9%; viability, T/C [2]: 35.5%; viability, T/C [3]: 22.4%; viability, T/C [4]: 12.1%; viability, T/C [5]: 6.47%; viability, T/C [6]: 6.01%; viability, T/C [7]: 40.4%; viability, T/C [8]: 27.1%; viability, T/C [9]: 21.2%; viability, T/C [10]: 8.86%; viability, T/C [11]: 5.91%; viability, T/C [12]: 5.08%; viability, T/C [13]: 22.6%; viability, T/C [14]: 16.9%; viability, T/C [15]: 12.8%; viability, T/C [16]: 6.37%; viability, T/C [17]: 4.95%; viability, T/C [18]: 4.49%; viability, T/C [19]: 8.54%; viability, T/C [20]: 7.09%; viability, T/C [21]: 6.46%; viability, T/C [22]: 5.74%; viability, T/C [23]: 4.46%; viability, T/C [24]: 4.49%; viability, T/C [25]: 6.2%; viability, T/C [26]: 5.86%; viability, T/C [27]: 4.85%; viability, T/C [28]: 4.65%; viability, T/C [29]: 4.8%; viability, T/C [30]: 4.19%
